In patent publication US20060069123A1, “Substituted dipiperidine CCR2 antagonists” (priority 2004, published 2006):
Like-named read-outs stand apart in the source and are kept apart here.

Assays:
THP-1 cells [1] = assay: MCP-1 Induced Chemotaxis in THP-1 Cells; type: cell-based; details: Homo sapiens, THP-1 cells, MCP-1 0.01 μg/mL, 3 hours, read-out: Inhibition of MCP-1 Induced Chemotaxis IC50
CCR2 = target: T1, CCR2 (Homo sapiens, UniProt P41597)
T1 sequence (P41597 1-360 isoform P41597-2): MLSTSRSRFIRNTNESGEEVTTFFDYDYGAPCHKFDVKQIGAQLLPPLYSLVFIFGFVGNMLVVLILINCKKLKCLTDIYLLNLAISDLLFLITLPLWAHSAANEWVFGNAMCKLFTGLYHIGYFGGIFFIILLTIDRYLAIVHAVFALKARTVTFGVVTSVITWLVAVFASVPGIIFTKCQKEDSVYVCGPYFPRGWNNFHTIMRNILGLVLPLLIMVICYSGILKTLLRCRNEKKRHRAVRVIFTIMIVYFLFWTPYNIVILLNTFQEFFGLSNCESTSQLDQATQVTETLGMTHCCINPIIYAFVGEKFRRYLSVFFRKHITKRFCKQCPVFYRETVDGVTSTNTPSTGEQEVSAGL

THP-1 cells [2] = details: Homo sapiens
[3] = THP-1, read-out: Inhibition of MCP-1 Induced Calcium Ion Influx IC50
[4] = THP-1, read-out: Inhibition of MCP-1 Induced Calcium Ion Influx IC50, THP-1 cells, 0.2 μM MCP-1, FLIPR

| IC50 (THP-1 cells [1]) [nM] | IC50 (CCR2) [nM] | IC50 (THP-1 cells [2]; [3]) [nM] | IC50 (THP-1 cells [1]; THP-1, 3 h) [nM] | IC50 (CCR2; Inhibition of MCP-1 Binding IC50, 125I labeled MCP-1 binding to CCR2, THP-1 cells) [nM] | IC50 (THP-1 cells [2]; [4]) [nM] | Structure (SMILES) |
| --- | --- | --- | --- | --- | --- | --- |
| 0.2 | 0.6 | 0.02 | – | – | – | CS(=O)(=O)Nc1ccc2[nH]cc(C3CCN(C(CO)C4CCN(C(=O)/C=C/c5ccc(Cl)c(Cl)c5)CC4)CC3)c2c1 (stereo not drawn) [Cpd 198, N-{3-[1-(1-{1-[(2E)-3-(3,4-dichloro-phenyl)-acryloyl]-piperidin-4-yl}-2-hydroxy-ethyl)-piperidin-4-yl]-1H-indol-5-yl}-methanesulfonamide] |
| 6 | 4.5 | 7 | – | – | – | O=C(/C=C/c1cc(F)cc(F)c1)N1CCC(C(CO)N2CCC(c3c[nH]c4ccc(F)cc34)CC2)CC1 (stereo not drawn) [Cpd 171, (2E)-3-(3,5-difluoro-phenyl)-1-(4-{1-[4-(5-fluoro-1H-indol-3-yl)-piperidin-1-yl]-2-hydroxy-ethyl}-piperidin-1-yl)-propenone] |
| 9 | 3 | 7 | – | – | – | O=C(/C=C/c1cc(F)c(F)c(F)c1)N1CCC(C(CO)N2CCC(c3c[nH]c4ncccc34)CC2)CC1 (stereo not drawn) [Cpd 153, (2E)-1-(4-{2-hydroxy-1-[4-(1H-pyrrolo[2,3-b]pyridin-3-yl)-piperidin-1-yl]-ethyl}-piperidin-1-yl)-3-(3,4,5-trifluoro-phenyl)-propenone] |
| 1300 | 140 | 140 | – | – | – | O=C(/C=C/c1cc(F)c(F)c(F)c1)N1CCC(C(CO)N2CCC(c3ccc(F)cc3)CC2)CC1 (stereo not drawn) [Cpd 193] |
| 700 | 250 | 1800 | – | – | – | CC(=O)NCC(C1CCN(C(=O)/C=C/c2cccc(C)c2)CC1)N1CCC(c2c[nH]c3ccccc23)CC1 (stereo not drawn) [Cpd 216] |
| 210 | 95 | 470 | – | – | – | O=C(O)C(C1CCN(C(=O)Nc2ccc(Br)cc2)CC1)N1CCC(c2c[nH]c3ccccc23)CC1 (stereo not drawn) [Cpd 89, [1-(4-bromo-phenylcarbamoyl)-piperidin-4-yl]-[4-(1H-indol-3-yl)-piperidin-1-yl]-acetic acid] |
| 150 | 30 | 10 | – | – | – | COc1ccc2c(C3CCN(C(CO)C4CCN(C(=O)/C=C/c5ccc(Cl)c(Cl)c5)CC4)CC3)c[nH]c2c1 (stereo not drawn) [Cpd 163, (2E)-3-(3,4-dichloro-phenyl)-1-(4-{2-hydroxy-1-[4-(6-methoxy-1H-indol-3-yl)-piperidin-1-yl]-ethyl}-piperidin-1-yl)-propenone] |
| 860 | 270 | 2100 | – | – | – | COc1ccc(C2CCN(C(CO)C3CCN(C(=O)/C=C/c4ccccc4)CC3)CC2)cc1 (stereo not drawn) [Cpd 159, (2E)-1-(4-{2-hydroxy-1-[4-(4-methoxy-phenyl)-piperidin-1-yl]-ethyl}-piperidin-1-yl)-3-phenyl-propenone] |
| 1200 | 510 | 5000 | – | – | – | COc1ccccc1C1CCN(C(CO)C2CCN(C(=O)/C=C/c3cc(F)cc(F)c3)CC2)CC1 (stereo not drawn) [Cpd 203, (2E)-3-(3,5-difluoro-phenyl)-1-(4-{2-hydroxy-1-[4-(2-methoxy-phenyl)-piperidin-1-yl]-ethyl}-piperidin-1-yl)-propenone] |
| 210 | 20 | 110 | – | – | – | Cc1ccc(NC(=O)N2CCC(C(C(=O)O)N3CCC(c4c[nH]c5ccccc45)CC3)CC2)cc1C(F)(F)F (stereo not drawn) [Cpd 106, [4-(1H-indol-3-yl)-piperidin-1-yl]-[1-(4-methyl-3-trifluoromethyl-phenylcarbamoyl)-piperidin-4-yl]-acetic acid] |
| 350 | 330 | 7870 | – | – | – | O=C(/C=C/c1cc(F)cc(F)c1)N1CCC(C(CO)N2CCC(c3ccncc3)CC2)CC1 (stereo not drawn) [Cpd 182, (2E)-3-(3,5-difluoro-phenyl)-1-{4-[2-hydroxy-1-(3,4,5,6-tetrahydro-2H-[4,4′]bipyridinyl-1-yl)-ethyl]-piperidin-1-yl}-propenone] |
| 460 | 90 | 20 | – | – | – | CC(=O)NCC(C1CCN(C(=O)/C=C/c2ccc(Cl)c(Cl)c2)CC1)N1CCC(c2c[nH]c3ccccc23)CC1 (stereo not drawn) [Cpd 215] |
| 80 | 40 | 20 | – | – | – | O=C(Nc1cc(F)cc(F)c1)N1CCC(C(CO)N2CCC(c3c[nH]c4ccccc34)CC2)CC1 (stereo not drawn) [Cpd 129, 4-{2-hydroxy-1-[4-(1H-indol-3-yl)-piperidin-1-yl]-ethyl}-piperidine-1-carboxylic acid (3,5-difluoro-phenyl)-amide] |
| 2 | 0.6 | 0.05 | – | – | – | O=C(/C=C/c1cc(F)c(F)c(F)c1)N1CCC([C@@H](CO)N2CCC(c3c[nH]c4ccccc34)CC2)CC1 [Cpd 187, (2E)-1-(4-{(1S)-2-hydroxy-1-[4-(1H-indol-3-yl)-piperidin-1-yl]-ethyl}-piperidin-1-yl)-3-(3,4,5-trifluoro-phenyl)-propenone] |
| 30 | 20 | 4 | – | – | – | CS(=O)(=O)Nc1ccc2[nH]cc(C3CCN(C(COC(=O)/C=C/c4cc(F)cc(F)c4)C4CCN(C(=O)/C=C/c5cc(F)cc(F)c5)CC4)CC3)c2c1 (stereo not drawn) [Cpd 199, (2E)-3-(3,5-difluoro-phenyl)-acrylic acid 2-{1-[(2E)-3-(3,5-difluoro-phenyl)-acryloyl]-piperidin-4-yl}-2-[4-(5-methanesulfonylamino-1H-indol-3-yl)-piperidin-1-yl]-ethyl ester] |
| 40 | 40 | 20 | – | – | – | O=C(/C=C/c1cc(F)cc(F)c1)N1CCC(C(CO)N2CCC(c3c[nH]c4c3ccc[n+]4[O-])CC2)CC1 (stereo not drawn) [Cpd 205, (2E)-3-(3,5-difluoro-phenyl)-1-(4-{2-hydroxy-1-[4-(7-oxy-1H-pyrrolo[2,3-b]pyridin-3-yl)-piperidin-1-yl]-ethyl}-piperidin-1-yl)-propenone] |
| 3 | 1 | 0.6 | – | – | – | CS(=O)(=O)Nc1ccc2[nH]cc(C3CCN(C(CO)C4CCN(C(=O)/C=C/c5cc(F)c(F)c(F)c5)CC4)CC3)c2c1 (stereo not drawn) [Cpd 201, N-{3-[1-(2-hydroxy-1-{1-[(2E)-3-(3,4,5-trifluoro-phenyl)-acryloyl]-piperidin-4-yl}-ethyl)-piperidin-4-yl]-1H-indol-5-yl}-methanesulfonamide] |
| 130 | 207 | 940 | – | – | – | O=C(/C=C/c1ccc(Cl)c(Cl)c1)N1CCC(C(CO)N2CCC(c3cc[nH]n3)CC2)CC1 (stereo not drawn) [Cpd 155, (2E)-3-(3,4-dichloro-phenyl)-1-(4-{2-hydroxy-1-[4-(1H-pyrazol-3-yl)-piperidin-1-yl]-ethyl}-piperidin-1-yl)-propenone] |
| 230 | 260 | 860 | – | – | – | Cc1cc(NC(=O)N2CCC(C(C(=O)O)N3CCC(c4c[nH]c5ccccc45)CC3)CC2)ccc1F (stereo not drawn) [Cpd 102, [1-(4-fluoro-3-methyl-phenylcarbamoyl)-piperidin-4-yl]-[4-(1H-indol-3-yl)-piperidin-1-yl]-acetic acid] |
| 217 | 172 | 1290 | – | – | – | COc1ccc(C2CCN(C(CO)C3CCN(C(=O)/C=C/c4ccc(F)c(F)c4)CC3)CC2)cc1 (stereo not drawn) [Cpd 138, (2E)-3-(3,4-difluoro-phenyl)-1-(4-{2-hydroxy-1-[4-(4-methoxy-phenyl)-piperidin-1-yl]-ethyl}-piperidin-1-yl)-propenone] |
| 300 | 188 | 2300 | – | – | – | O=C(/C=C/c1cc(F)c(F)c(F)c1)N1CCC(C(CO)N2CCC(c3nc4ccccc4[nH]3)CC2)CC1 (stereo not drawn) [Cpd 175, (2E)-1-(4-{1-[4-(1H-benzoimidazol-2-yl)-piperidin-1-yl]-2-hydroxy-ethyl}-piperidin-1-yl)-3-(3,4,5-trifluoro-phenyl)-propenone] |
| 200 | 210 | 250 | – | – | – | O=C(/C=C/c1cc(F)cc(F)c1)N1CCC(C(CO)N2CCC(c3ccc4c(c3)OCO4)CC2)CC1 (stereo not drawn) [Cpd 190] |
| – | – | – | 9 | 40 | 10 | O=C(/C=C/c1cc(F)c(F)c(F)c1)N1CCC(C(CO)N2CCC(c3c[nH]c4ccc(F)cc34)CC2)CC1 (stereo not drawn) [Cpd 170, (2E)-1-(4-{1-[4-(5-fluoro-1H-indol-3-yl)-piperidin-1-yl]-2-hydroxy-ethyl}-piperidin-1-yl)-3-(3,4,5-trifluoro-phenyl)-propenone] |
| – | 350 | – | 290 | – | 210 | O=C(O)C(C1CCN(C(=O)COc2ccc(Cl)c(Cl)c2)CC1)N1CCC(c2c[nH]c3ccccc23)CC1 (stereo not drawn) [Cpd 114, {1-[2-(3,4-dichloro-phenoxy)-acetyl]-piperidin-4-yl}-[4-(1H-indol-3-yl)-piperidin-1-yl]-acetic acid] |
| 30 | 20 | 30 | – | – | – | CS(=O)(=O)Nc1ccc2[nH]cc(C3CCN(C(C(=O)O)C4CCN(C(=O)Nc5ccc(Cl)c(Cl)c5)CC4)CC3)c2c1 (stereo not drawn) [Cpd 109, [1-(3,4-dichloro-phenylcarbamoyl)-piperidin-4-yl]-[4-(5-methanesulfonylamino-1H-indol-3-yl)-piperidin-1-yl]-acetic acid] |
